Measurements taken from patent publication US7446199B2, “Compositions useful as inhibitors of protein kinases” (Vertex Pharmaceuticals Incorporated, priority 2003, dated 2008).

What was measured:
GSK-3β, (AA 1-420) = GSK-3β, (AA 1-420) (Homo sapiens, UniProt P49841); test: GSK-3 inhibition assay, coupled enzyme system; assay type: biochemical; settings: 20 μM ATP, 300 μM peptide, 20 nM GSK-3b, 30° C.; read-out: Ki values (GSK3)
Procedure, shortened: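 Pyruvate kinase/lactate dehydrogenase-coupled NADH assay with 20 nM enzyme, 20 μM ATP and 300 μM peptide in HEPES pH 7.5, 1.5% DMSO, 30° C. Compound (0.002–30 μM, 12-point) preincubated 10 min before ATP start; rates over 10 min gave Ki.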

FLT-3 = molecular target: T1, FLT-3 (Homo sapiens, UniProt P36888); test: Inhibition of FLT-3, radiometric filter-binding assay; assay type: biochemical; settings: 90 μM ATP, 0.5 mg/mL pE4Y, room temperature
T1 construct: 0.02% BSA and 3 nM FLT-3
T1 sequence (P36888 27-993): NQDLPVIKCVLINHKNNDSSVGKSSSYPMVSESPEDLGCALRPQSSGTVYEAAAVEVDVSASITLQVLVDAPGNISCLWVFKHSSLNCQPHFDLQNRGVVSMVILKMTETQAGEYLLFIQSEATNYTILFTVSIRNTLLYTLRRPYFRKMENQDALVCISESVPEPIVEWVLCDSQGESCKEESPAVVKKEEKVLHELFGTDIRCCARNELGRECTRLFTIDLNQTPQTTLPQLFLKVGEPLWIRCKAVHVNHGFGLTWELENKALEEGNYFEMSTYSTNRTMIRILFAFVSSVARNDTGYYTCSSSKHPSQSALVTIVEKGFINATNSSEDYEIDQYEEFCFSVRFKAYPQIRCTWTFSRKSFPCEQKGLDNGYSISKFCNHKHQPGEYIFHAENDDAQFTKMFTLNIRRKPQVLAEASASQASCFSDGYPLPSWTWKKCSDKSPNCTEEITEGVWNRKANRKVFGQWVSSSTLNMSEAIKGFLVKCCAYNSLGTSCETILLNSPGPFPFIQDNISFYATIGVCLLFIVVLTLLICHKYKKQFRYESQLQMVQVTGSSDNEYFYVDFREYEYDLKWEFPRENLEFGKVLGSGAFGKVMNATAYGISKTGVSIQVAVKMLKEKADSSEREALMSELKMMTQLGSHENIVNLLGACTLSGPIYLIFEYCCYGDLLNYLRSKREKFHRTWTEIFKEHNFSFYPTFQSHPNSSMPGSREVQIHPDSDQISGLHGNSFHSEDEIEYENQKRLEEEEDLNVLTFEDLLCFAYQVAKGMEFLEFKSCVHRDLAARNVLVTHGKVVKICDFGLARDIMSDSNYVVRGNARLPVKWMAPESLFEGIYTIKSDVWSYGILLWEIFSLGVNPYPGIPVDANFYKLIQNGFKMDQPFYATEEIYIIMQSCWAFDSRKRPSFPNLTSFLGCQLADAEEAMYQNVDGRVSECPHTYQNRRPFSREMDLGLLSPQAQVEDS
Procedure, shortened: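 Radiometric filter-binding assay of FLT-3 (3 nM in Solution 2; final conc not stated) phosphorylating poly(Glu,Tyr) 4:1 (0.5 mg/mL) with 90 μM ATP plus [γ-33P]ATP, in HEPES pH 7.5, MgCl2, NaCl, DTT, BSA, 2.5% DMSO. 12-point titration, typically 0.01–5 μM, 20 min at room temperature; TCA-stopped, filtered, scintillation-counted; IC50 or Ki fitted.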

GSK-3β, (AA 1-420), sequence (P49841 whole entry, the tested form may be a part): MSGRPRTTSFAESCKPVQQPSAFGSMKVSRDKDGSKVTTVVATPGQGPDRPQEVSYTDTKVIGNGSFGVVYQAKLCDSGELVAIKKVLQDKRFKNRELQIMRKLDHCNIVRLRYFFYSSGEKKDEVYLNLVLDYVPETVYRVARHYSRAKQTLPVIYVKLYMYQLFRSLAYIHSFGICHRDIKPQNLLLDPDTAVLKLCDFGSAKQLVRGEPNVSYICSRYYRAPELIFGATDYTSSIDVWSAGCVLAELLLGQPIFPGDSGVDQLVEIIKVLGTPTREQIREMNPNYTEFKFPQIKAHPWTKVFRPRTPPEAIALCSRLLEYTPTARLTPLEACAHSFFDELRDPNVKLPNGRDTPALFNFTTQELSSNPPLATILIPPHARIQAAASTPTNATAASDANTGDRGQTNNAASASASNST

| Compound | Ki (GSK-3β, (AA 1-420)) [nM] | Ki (FLT-3) [nM] |
| --- | --- | --- |
| Fc1cccc(-n2cnnc2-c2c[nH]c3ncc(-c4ccc(N5CCCC5)nc4)cc23)c1F [Compound 118, 3-[4-(2,3-Difluoro-phenyl)-4H-[1,2,4]triazol-3-yl]-5-(6-pyrrolidin-1-yl-pyridin-3-yl)-1H-pyrrolo[2,3-b]pyridine] | 200 to 1000 | 200 to 1000 |
| CN(C)c1cccc(-c2cnc3[nH]cc(-c4oncc4-c4cccc(F)c4F)c3c2)c1 [Compound 61, (3-{3-[4-(2,3-Difluoro-phenyl)-isoxazol-5-yl]-1H-pyrrolo[2,3-b]pyridin-5-yl}-phenyl)-dimethyl-amine] | 200 to 1000 | 200 to 1000 |
| N#CCC(=O)N1CCC(c2cnc3[nH]cc(-c4oncc4-c4cccc(F)c4F)c3c2)CC1 [Compound 64, 3-(4-{3-[4-(2,3-Difluoro-phenyl)-isoxazol-5-yl]-1H-pyrrolo[2,3-b]pyridin-5-yl}-piperidin-1-yl)-3-oxo-propionitrile] | < 200 | 200 to 1000 |
| Cc1noc(-c2c[nH]c3ncccc23)c1-c1cccc(F)c1F [Compound 134, 3-[4-(2,3-Difluoro-phenyl)-3-methyl-isoxazol-5-yl]-1H-pyrrolo[2,3-b]pyridine] | 200 to 1000 | < 200 |

More lines, now with the values ahead:

| Ki (GSK-3β, (AA 1-420)) [nM] | Ki (FLT-3) [nM] | Compound |
| --- | --- | --- |
| 200 to 1000 | 200 to 1000 | COc1cnc2[nH]cc(-c3oncc3-c3cccc(Cl)c3Cl)c2c1 [Compound 49, 3-[4-(2,3-Dichloro-phenyl)-isoxazol-5-yl]-5-methoxy-1H-pyrrolo[2,3-b]pyridine] |
| 1000 to 12500 | 200 to 1000 | Oc1cnc2[nH]cc(-c3oncc3-c3cccc(Cl)c3Cl)c2c1 [Compound 48, 3-[4-(2,3-Dichloro-phenyl)-isoxazol-5-yl]-1H-pyrrolo[2,3-b]pyridin-5-ol] |
| < 200 | < 200 | Clc1cccc(-c2cnoc2-c2c[nH]c3ncc(-c4cccnc4)cc23)c1Cl [Compound 99, 3-[4-(2,3-Dichloro-phenyl)-isoxazol-5-yl]-5-pyridin-3-yl-1H-pyrrolo[2,3-b]pyridine] |
